Experimental data taken from patent publication US10093683B2, “Factor XIa inhibitors” (Merck Sharp & Dohme Corp., priority 2014, dated 2018).
Where a name gives a salt, the structure may show the parent alone.

The compounds below were run against human Factor XIa (Homo sapiens (Human), UniProt P03951) (assay: Factor XIa Assay). Details: purified human Factor XIa 40 pM, Z-Gly-Pro-Arg-AFC 100 μM, pH 7.4; read-out: FXIa Ki.
Assay type: biochemical
Summary of the method: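 Purified human FXIa (40 pM final) hydrolysing fluorogenic Z-Gly-Pro-Arg-AFC (100 μM) in 50 mM HEPES pH 7.4, 150 mM NaCl, 5 mM CaCl2, 0.1% PEG 8000, at room temperature or 37° C. Initial velocities measured after enzyme–inhibitor equilibration; Ki from Vo/Vi versus [I], assuming competitive inhibition.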

Chain of human Factor XIa (P03951 388-625): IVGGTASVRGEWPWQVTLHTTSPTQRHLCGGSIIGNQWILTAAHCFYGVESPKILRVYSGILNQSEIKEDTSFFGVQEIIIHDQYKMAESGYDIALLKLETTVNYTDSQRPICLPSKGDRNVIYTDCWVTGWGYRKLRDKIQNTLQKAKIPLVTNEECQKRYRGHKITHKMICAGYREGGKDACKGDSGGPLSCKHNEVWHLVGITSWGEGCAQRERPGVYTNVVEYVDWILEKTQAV
Chain of human Factor XIa (P03951 19-387 partner): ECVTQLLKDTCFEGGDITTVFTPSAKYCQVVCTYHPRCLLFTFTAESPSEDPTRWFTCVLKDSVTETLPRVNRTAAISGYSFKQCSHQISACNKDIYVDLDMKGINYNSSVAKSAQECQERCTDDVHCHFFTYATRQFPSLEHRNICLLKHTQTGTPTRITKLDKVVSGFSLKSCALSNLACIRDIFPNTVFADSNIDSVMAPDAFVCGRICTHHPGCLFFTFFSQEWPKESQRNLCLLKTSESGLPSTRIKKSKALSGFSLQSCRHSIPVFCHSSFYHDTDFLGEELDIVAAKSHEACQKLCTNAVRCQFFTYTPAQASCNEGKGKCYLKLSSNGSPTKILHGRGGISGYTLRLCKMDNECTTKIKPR

SMILES | Ki [µM]
COC(=O)Nc1ccc(NC(=O)N[C@@H](Cc2ccccc2)C(=O)N2CCC3(C2)OC(=O)Nc2ccc(Cl)cc23)cc1 (stereo partly drawn) [Example 275, methyl (4-(3-((2S)-1-(6-chloro-2-oxo-1,2-dihydrospiro[benzo[d][1,3]oxazine-4,3′-pyrrolidin]-1′-yl)-1-oxo-3-phenylpropan-2-yl)ureido)phenyl)carbamate] | 5
Nc1[nH]nc2c1CN(C(=O)N[C@@H](Cc1ccccc1)C(=O)N1CCC3(C1)OC(=O)Nc1ccc(Cl)cc13)C2 (stereo partly drawn) [Example 276, 3-amino-N-((2S)-1-(6-chloro-2-oxo-1,2-dihydrospiro[benzo[d][1,3]oxazine-4,3′-pyrrolidin]-1′-yl)-1-oxo-3-phenylpropan-2-yl)-4,6-dihydropyrrolo[3,4-c]pyrazole-5(2H)-carboxamide] | 5
O=C(Nc1ccc(C(=O)O)cc1)N[C@@H](Cc1ccccc1)C(=O)N1CCC2(C1)OC(=O)Nc1ccc(Cl)cc12 (stereo partly drawn) [Example 277, 4-(3-((2S)-1-(6-chloro-2-oxo-1,2-dihydrospiro[benzo[d][1,3]oxazine-4,3′-pyrrolidin]-1′-yl)-1-oxo-3-phenylpropan-2-yl)ureido)benzoic acid] | 5
NC(=O)c1n[nH]c2c1CN(C(=O)N[C@@H](Cc1ccccc1)C(=O)N1CCC3(C1)OC(=O)Nc1ccc(Cl)cc13)C2 (stereo partly drawn) [Example 278, N5-((2S)-1-(6-chloro-2-oxo-1,2-dihydrospiro[benzo[d][1,3]oxazine-4,3′-pyrrolidin]-1′-yl)-1-oxo-3-phenylpropan-2-yl)-4,6-dihydropyrrolo[3,4-c]pyrazole-3,5(1H)-dicarboxamide] | 5
O=C(NCc1cccc(C(=O)O)c1)N[C@@H](Cc1ccccc1)C(=O)N1CCC2(C1)OC(=O)Nc1ccc(Cl)cc12 (stereo partly drawn) [Example 279, 3-((3-((2S)-1-(6-chloro-2-oxo-1,2-dihydrospiro[benzo[d][1,3]oxazine-4,3′-pyrrolidin]-1′-yl)-1-oxo-3-phenylpropan-2-yl)ureido)methyl)benzoic acid] | 5
N#Cc1ccc(S(=O)(=O)N[C@@H](Cc2ccccc2)C(=O)N2CCC3(C2)OC(=O)Nc2ccc(Cl)cc23)cc1 (stereo partly drawn) [Example 280, N-((2S)-1-(6-chloro-2-oxo-1,2-dihydrospiro[benzo[d][1,3]oxazine-4,3′-pyrrolidin]-1′-yl)-1-oxo-3-phenylpropan-2-yl)-4-cyanobenzenesulfonamide] | 5
CNC(=O)Nc1ccc(S(=O)(=O)N[C@@H](Cc2ccccc2)C(=O)N2CCC3(C2)OC(=O)Nc2ccc(Cl)cc23)c(Cl)c1 (stereo partly drawn) [Example 281, 2-chloro-N-((2S)-1-(6-chloro-2-oxo-1,2-dihydrospiro[benzo[d][1,3]oxazine-4,3′-pyrrolidin]-1′-yl)-1-oxo-3-phenylpropan-2-yl)-4-(3-methylureido)benzenesulfonamide] | ≥ 5
O=C1COc2ccc(S(=O)(=O)N[C@@H](Cc3ccccc3)C(=O)N3CCC4(C3)OC(=O)Nc3ccc(Cl)cc34)cc2N1 (stereo partly drawn) [Example 282, N-((2S)-1-(6-chloro-2-oxo-1,2-dihydrospiro[benzo[d][1,3]oxazine-4,3′-pyrrolidin]-1′-yl)-1-oxo-3-phenylpropan-2-yl)-3-oxo-3,4-dihydro-2H-benzo[b][1,4]oxazine-6-sulfonamide] | ≥ 5
O=C1Nc2ccc(Cl)cc2C2(CCN(C(=O)[C@H](Cc3ccccc3)NS(=O)(=O)c3ccc(C(=O)O)cc3)C2)O1 (stereo partly drawn) [Example 283, 4-(N-((2S)-1-(6-chloro-2-oxo-1,2-dihydrospiro[benzo[d][1,3]oxazine-4,3′-pyrrolidin]-1′-yl)-1-oxo-3-phenylpropan-2-yl)sulfamoyl)benzoic acid] | ≥ 5
CC(=O)Nc1ccc(S(=O)(=O)N[C@@H](Cc2ccccc2)C(=O)N2CCC3(C2)OC(=O)Nc2ccc(Cl)cc23)cc1 (stereo partly drawn) [Example 284, N-(4-(N-((2S)-1-(6-chloro-2-oxo-1,2-dihydrospiro[benzo[d][1,3]oxazine-4,3′-pyrrolidin]-1′-yl)-1-oxo-3-phenylpropan-2-yl)sulfamoyl)phenyl)acetamide] | ≥ 5
O=C1Nc2ccc(Cl)cc2C2(CCN(C(=O)[C@H](Cc3ccccc3)NS(=O)(=O)c3ccc4oc(O)nc4c3)C2)O1 (stereo partly drawn) [Example 285, N-((2S)-1-(6-chloro-2-oxo-1,2-dihydrospiro[benzo[d][1,3]oxazine-4,3′-pyrrolidin]-1′-yl)-1-oxo-3-phenylpropan-2-yl)-2-hydroxybenzo[d]oxazole-5-sulfonamide] | ≥ 5
CO[C@@H]1C[C@@H](C(=O)N2CC[C@@]3(C2)OC(=O)Nc2ccc(Cl)cc23)N(C(=O)c2ccc3nc(N)sc3c2)C1 [Example 290, (R)-1′-((2S,4R)-1-(2-aminobenzo[d]thiazole-6-carbonyl)-4-methoxypyrrolidine-2-carbonyl)-6-chlorospiro[benzo[d][1,3]oxazine-4,3′-pyrrolidin]-2(1H)-one] | 2.4
Nc1nc2ccc(C(=O)N3C[C@H](F)C[C@H]3C(=O)N3CC[C@@]4(C3)OC(=O)Nc3ccc(Cl)cc34)cc2s1 [Example 291, (R)-1′-((2S,4R)-1-(2-aminobenzo[d]thiazole-6-carbonyl)-4-fluoropyrrolidine-2-carbonyl)-6-chlorospiro[benzo[d][1,3]oxazine-4,3′-pyrrolidin]-2(1H)-one] | 4.62
Nc1nc2ccc(C(=O)N3C[C@H](Cc4ccccc4)C[C@H]3C(=O)N3CC[C@@]4(C3)OC(=O)Nc3ccc(Cl)cc34)cc2s1 [Example 292, (R)-1′-((2S,4R)-1-(2-aminobenzo[d]thiazole-6-carbonyl)-4-benzylpyrrolidine-2-carbonyl)-6-chlorospiro[benzo[d][1,3]oxazine-4,3′-pyrrolidin]-2(1H)-one] | 1.87

Same assay, conditions: read-out: FXIa Ki

SMILES | Ki [µM]
COC(=O)Nc1ccc(C(N[C@@H](Cc2ccccc2)C(=O)N2CCC3(C2)OC(=O)Nc2ccc(Cl)cc23)C(F)(F)F)cc1 (stereo partly drawn) [Example 223, Methyl (4-(1-(((S)-1-((R)-6-chloro-2-oxo-1,2-dihydrospiro[benzo[d][1,3]oxazine-4,3′-pyrrolidin]-1′-yl)-1-oxo-3-phenylpropan-2-yl)amino)-2,2,2-trifluoroethyl)phenyl)carbamate] | 8.75
CC(N[C@@H](Cc1ccccc1)C(=O)N1CC[C@@]2(C1)OC(=O)Nc1ccc(Cl)cc12)c1ccc2c(N)n[nH]c2c1 (stereo partly drawn) [Example 224, (4R)-1′-((1-(3-amino-1H-indazol-6-yl)ethyl)-L-phenylalanyl)-6-chlorospiro[benzo[d][1,3]oxazine-4,3′-pyrrolidin]-2(1H)-one dihydrochloride] | 8.75
CCOP(=O)(OCC)c1ccc(C(=O)N[C@H](Cc2ccccc2)C(=O)N2CCC[C@@]3(C2)OC(=O)Nc2ccc(Cl)c(F)c23)cc1 [Example 229, diethyl (4-(((R)-1-((R)-6-chloro-5-fluoro-2-oxo-1,2-dihydrospiro[benzo[d][1,3]oxazine-4,3′-piperidin]-1′-yl)-1-oxo-3-phenylpropan-2-yl)carbamoyl)phenyl)phosphonate] | 8.75
O=C1Nc2ccc(Cl)c(F)c2[C@@]2(CCCN(C(=O)[C@H](Cc3ccccc3)NC(=O)c3ccc(-c4nc(=O)o[nH]4)cc3)C2)O1 [Example 232, N-((S)-1-((R)-6-chloro-5-fluoro-2-oxo-1,2-dihydrospiro[benzo[d][1,3]oxazine-4,3′-piperidin]-1′-yl)-1-oxo-3-phenylpropan-2-yl)-4-(5-oxo-2,5-dihydro-1,2,4-oxadiazol-3-yl)benzamide] | 0.258
COC(=O)NC12CC(C(=O)N[C@@H](Cc3ccccc3)C(=O)N3CCC[C@@]4(C3)OC(=O)Nc3ccc(Cl)c(F)c34)(C1)C2 [Example 238] | 0.104
O=C1Nc2ccc(Cl)cc2[C@@]2(CCCN(C(=O)[C@H](CC3CC3)NC(=O)c3csc(C(=O)O)n3)C2)O1 [Example 239] | 0.405
COC(=O)Nc1ccc(C(=O)N[C@@H](Cc2ccccc2)C(=O)N2CCC[C@@]3(C2)OC(=O)Nc2ccc(Cl)c(F)c23)nn1 [Example 242] | 0.177
COC(=O)NC12CCC(C(=O)N[C@@H](Cc3ccccc3)C(=O)N3CCC[C@@]4(C3)OC(=O)Nc3ccc(Cl)c(F)c34)(CC1)CC2 [Example 243] | 0.096
O=C1Nc2ccc(Cl)c(F)c2[C@@]2(CCCN(C(=O)[C@H](Cc3ccccc3)NC(=O)c3ccc(=O)[nH]c3)C2)O1 [Example 246] | 0.0778
O=C1Nc2ccc(Cl)c(F)c2[C@@]2(CCCN(C(=O)[C@H](Cc3ccccc3)NC(=O)c3ccc(-n4cn[nH]c4=O)cc3)C2)O1 [Example 247, N-((S)-1-((R)-6-chloro-5-fluoro-2-oxo-1,2-dihydrospiro[benzo[d][1,3]oxazine-4,3′-piperidin]-1′-yl)-1-oxo-3-phenylpropan-2-yl)-4-(5-oxo-1,5-dihydro-4H-1,2,4-triazol-4-yl)benzamide] | 0.0668
O=C1Nc2ccc(Cl)cc2C2(CCN(C(=O)[C@H](Cc3ccccc3)NC(=O)c3ccc4cc(C(=O)O)ccc4c3)C2)O1 (some centres unmarked) [Example 259] | 0.298
Nc1ccc2cc(C(=O)N[C@@H](Cc3ccccc3)C(=O)N3CCC4(C3)OC(=O)Nc3ccc(Cl)cc34)ccc2n1 (some centres unmarked) [Example 261] | 4.05
O=C1Nc2ccc(Cl)cc2C2(CCN(C(=O)[C@H](Cc3ccccc3)NC(=O)c3ccc4ncc(O)nc4c3)C2)O1 (some centres unmarked) [Example 262] | 0.512
O=C1Nc2ccc(Cl)cc2C2(CCN(C(=O)[C@H](Cc3ccccc3)NC(=O)c3ccc4c(c3)S(=O)(=O)N=CN4)C2)O1 (some centres unmarked) [Example 263] | 1.97
O=C1Nc2ccc(Cl)c(F)c2[C@@]2(CCCN(C(=O)[C@H](Cc3cccc(F)c3)NC(=O)c3ccc(C(=O)NCCP(=O)(O)O)cc3)C2)O1 [Example 273, (2-(4-(((S)-1-((R)-6-Chloro-5-fluoro-2-oxo-1,2-dihydrospiro[benzo[d][1,3]oxazine-4,3′-piperidin]-1′-yl)-3-(3-fluorophenyl)-1-oxopropan-2-yl)carbamoyl)benzamido)ethyl)phosphonic acid] | 0.367
